{"source": "patent US9005641B2", "about": "“Compositions and methods for preventing or reducing resistance of insects to insecticides” (Rothamsted Research Limited, priority 2002, dated 2015)", "key": {"[1]": {"system": "pyrethroid-resistant H. armigera larvae", "assay": "Synergism studies: PBO pre-treatment before pyrethroid, larval mortality", "method": "These involved a comparison of esterase inhibition (expressed as % of control, ± standard deviation) incurred by H. armigera larvae over time following topical application of 1 μl PBO (1%), and the effect on mortality of pyrethroid-resistant larvae when exposed to increasing PBO (1 μl, 1% PBO/larva) pre-treatment intervals before fenvalerate (1 μl, 0.125% fenvalerate/larva, FIG. 3) and zeta-cypermethrin (1 μl, 0.01% zeta-cypermethrin/larva, FIG. 4) exposure."}, "[2]": {"system": "pyrethroid resistant second instar H. armigera larvae", "assay": "Field trial on cotton, night sprays", "type": "in vivo, Helicoverpa armigera", "conditions": "one day after treatment; lambdacyhalothrin 15 g a.i./ha, PBO 320 g a.i./ha; strain 20 fold resistant", "experimental": "In the lack of H. armigera pressure on cotton, pyrethroid resistant second instar H. armigera larvae, which were the progeny a field strain originating from Queensland, were placed on cotton plant. The strain was 20 fold resistant to lambdacyhalothrin.\nInsecticides were mixed with water.\nThe trial was conducted on replicated, 1 row×2 m plots. Each plot contained from 13-17 mature cotton plants. There was an unsprayed buffer of two rows between each plot. Just prior to sunset, ten second instar H. armigera larvae were placed onto the terminals of each plant in the test plots and the plots sprayed. H. armigera numbers per plant were assessed one day after treatment. Temperature ranged from 24-26° C. The mean percentage mortality and standard deviation were calculated for each treatment."}}, "data": [{"smiles": "CC1(C)C(C=C(Cl)Cl)C1C(=O)OC(C#N)c1cccc(Oc2ccccc2)c1", "note": "(racemic) [zeta-cypermethrin, (S)-cyano(3-phenoxyphenyl)-methyl(±)-cis-trans-3-(2,2,-dichloroethenyl)-2,2-dimethylcyclo-propanecarboxylate]", "values": [{"measurement": "mortality (plateau)", "setting": "[1]; 1 μl 0.01% zeta-cypermethrin/larva, PBO (1 μl, 1%) pre-treatment interval 4-10 hrs", "result": 100, "unit": "%"}]}, {"smiles": "CC(C)C(C(=O)OC(C#N)c1cccc(Oc2ccccc2)c1)c1ccc(Cl)cc1", "note": "(stereo not drawn) [fenvalerate, (R—(R*,S*)-4-chloro-α(1-methylethyl)benzeneacetic acid, cyano (3-phenoxyphenyl)methyl ester)]", "values": [{"measurement": "mortality (plateau)", "setting": "[1]; 1 μl 0.125% fenvalerate/larva, PBO (1 μl, 1%) pre-treatment interval 4-5 hrs", "result": 100, "unit": "%"}]}, {"smiles": "CC1(C)[C@H](C(=O)O[C@H](C#N)c2cccc(Oc3ccccc3)c2)[C@@H]1/C=C(\\Cl)C(F)(F)F", "note": "[lambdacyhalothrin]", "values": [{"measurement": "mortality / control of H. armigera", "setting": "[2]", "result": "~40", "unit": "%"}]}]}
